The values that follow come from PubChem BioAssay AID1259418 (Broad Institute, 2018).

“And” between values parts separate entries of the source, which are not always exact repeats. Equal values may be shown once. Records with an inconclusive call do not appear. The source made the active and inactive calls.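 Rule for the calls: active = fitted half-maximal concentration of signal decrease at or below twice the sample's top tested concentration; inconclusive = flat curve between -70 and -30 percent, or poor fit; inactive = flat within 30 percent, signal rise, or potency above limit.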

In this experiment the target is T. gondii ME49Luc in IFN-y HeLa, luciferase, 72 h. Description: inhibitors of Toxoplasma growth in IFN-γ-primed HeLa – cell-based, ME49Luc, luciferase, 72 h, dose response (AID 1259418).
Take `O=C(Cc1ccncc1)N1CCCCN2[C@H](CO)[C@@H](c3ccc(C#Cc4ccccc4F)cc3)[C@H]2C1`: the AC50 was 18.5 µM.

With `COc1cccc(NC(=O)N2CC(=O)N3[C@@H](CO)[C@H](c4ccc(C#CCC5CCCC5)cc4)[C@@H]3C2)c1`, the AC50 was 20 µM.

With `Cc1ccccc1-c1ccc([C@H]2[C@H](CO)N3C(=O)CN(C(=O)c4ccncc4)C[C@@H]23)cc1`, the AC50 was 21.5 µM.

With `Cn1c2ccccc2c2c1cc(C(=O)N1CCN(c3ccncc3)CC1)n2S(C)(=O)=O`, the AC50 was 26.6 µM.

Take `COc1cccc(S(=O)(=O)N2CCCCN3[C@@H](CO)[C@@H](c4ccc(C#CCC(C)C)cc4)[C@@H]3C2)c1`: the AC50 was 4.66 µM and 5.61 µM and 2.22 µM.

With `Cc1cccc(NC(=O)COc2nc(C)nc3ccccc23)c1`, the AC50 is 32 µM.

Turning to `COc1ccc(NS(=O)(=O)c2cc3c4c(c2)CCC(=O)N4CCC3)cc1OC`, the AC50 is 28.4 µM.

With `COC1(C)CC2C(CC1OC(=O)c1cc([N+](=O)[O-])cc([N+](=O)[O-])c1)C2(C)C` (configuration not stated), the AC50 was 12.4 µM.

Regarding `O=C(c1ccc(-n2nc(C(F)(F)F)c3c2CCCC3)cc1)N1CCC2(CC1)OCCO2`, the AC50 was 1.4 µM.

With `CS(=O)(=O)N1CSC[C@@H]1C(=O)NCCc1csc(-c2ccccc2)n1`, the AC50 was 30.8 µM.

As to `COc1cccc(-c2nc3c(s2)CN(S(=O)(=O)c2cccc(F)c2)CC3)c1`, the AC50 is 11.3 µM.

As for `CS(=O)(=O)N1CC(=O)N2[C@H](C1)[C@@H](c1ccc(C#Cc3ccc(F)cc3)cc1)[C@@H]2CO`, the AC50 was 22.8 µM.

Consider `CCOc1ccccc1-n1c(C(C)N2CCN(C(=O)COc3ccc(Cl)cc3)CC2)nc2ccccc2c1=O` (configuration not stated), for which the AC50 was 7.75 µM.

For the compound `CS(=O)(=O)N1CC(=O)N2[C@H](C1)[C@@H](c1ccc(C#CCC3CCCC3)cc1)[C@@H]2CO`, the AC50 is 19.2 µM.

Regarding `Cc1cccc(C(=O)N2CCC3(CC2)Nc2cc(F)ccc2-n2cccc23)c1`, the AC50 was > 39 µM (inactive).

As for `O=C(CCC1N=C2c3ccccc3N=C(SCc3ccccc3F)N2C1=O)NCc1cccs1` (configuration not stated), the AC50 is 22.4 µM.

With `Cc1ccc(-c2nc(CN3CCN(C(=O)Nc4ccc(C)c(C)c4)CC3)c(C)o2)cc1`, the AC50 was 23.2 µM.

For `CCOc1ccccc1N(Cc1nc(-c2ccccc2)oc1C)S(=O)(=O)c1ccccc1`, the AC50 was 7.75 µM.

In the case of `CC(C)n1ncc(NC(=O)Cn2ccc(-c3ccc(C(F)(F)F)cc3)n2)n1`, the AC50 is 24.3 µM.

Turning to `CCCNC(=O)N1C[C@@H]2N[C@H](C1)C2c1ccc(-c2ccc(OC)cc2)cc1` (some centres not stated), the AC50 is 17.9 µM and 23.9 µM.

Regarding `c1ccc2c(Oc3nc(Nc4ccc(N5CCOCC5)cc4)c4ncn(C5CCCCC5)c4n3)cccc2c1`, the AC50 was 16.4 µM.

Take `Cc1ccc(-c2noc(-c3ccc(N4CCC(N5CCCCC5)CC4)nc3)n2)cc1`: the AC50 was 24.8 µM.

On to `C[C@H](CO)N1C[C@H](C)[C@H](CN(C)C(=O)Nc2ccc(C(F)(F)F)cc2)Oc2c(NC(=O)c3ccc(-c4nccs4)cc3)cccc2C1=O`, for which the AC50 was 18 µM.

For the compound `OC(c1cc(C(F)(F)F)nc2c(C(F)(F)F)cccc12)C1CCCCN1` (configuration not stated), the AC50 was 6.5 µM.

For the compound `Cc1ccccc1-c1ccc(C2[C@@H]3CN(C(=O)c4ccc(F)cc4)C[C@H]2N3)cc1` (some centres not stated), the AC50 is 19 µM.

Take `COc1ccc(-c2ccc([C@H]3[C@H]4CN(Cc5ccccc5)CC(=O)N4[C@H]3CO)cc2)cc1`: the AC50 was 21 µM.

In the case of `Cc1ccc(-c2nc(CN3CCN(C(=O)NCCc4ccccc4)CC3)c(C)o2)cc1`, the AC50 is > 39 µM (inactive).

Consider `COc1ccc(CNC2=NCCNC23CCN(S(=O)(=O)c2cc(C)c(C)cc2C)CC3)cc1`, for which the AC50 was 12.6 µM.

For `Cc1ccccc1-c1nc(CN2CCN(C(=O)NC3CCCC3)CC2)c(C)o1`, the AC50 was > 39 µM (inactive).

Consider `COc1cccc(S(=O)(=O)N2CCCCN3[C@H](C2)[C@@H](c2ccc(C#CCC(C)C)cc2)[C@@H]3CO)c1`, for which the AC50 is 15.3 µM.

On to `COc1ccc(S(=O)(=O)N(C)C[C@H]2Oc3c(NC(=O)c4nc5ccccc5s4)cccc3C(=O)N([C@@H](C)CO)C[C@H]2C)cc1`, for which the AC50 is 21.8 µM.

On to `COc1ccccc1-c1nc(CN(c2ccccc2OC)S(=O)(=O)c2ccccc2)c(C)o1`, for which the AC50 was 5.18 µM.

Regarding `O=C(NCCc1csc(-c2ccccc2)n1)C1CCN(C(=O)c2ccc(F)c(Cl)c2)CC1`, the AC50 is 5.61 µM.

Take `CC(C)(C)c1ccc(S(=O)(=O)N2CCC[C@@H]2C(=O)NCCc2csc(-c3ccccc3)n2)cc1`: the AC50 was 4.48 µM.

`O=S(=O)(c1ccc2c(c1)CCCC2)N1CCC2(CC1)NCCN=C2NCc1ccc(Cl)cc1`: the AC50 was 9.16 µM.

With `Cc1cc(C)cc(S(=O)(=O)N2CCC[C@@H]2C(=O)NCCc2csc(-c3ccccc3)n2)c1`, the AC50 is 13.5 µM.

On to `COCC(=O)Nc1ccc(-c2nc(-c3cc(C)ccc3C)co2)cc1`, for which the AC50 was > 39 µM (inactive).

In the case of `COc1ccc(N(Cc2nc(-c3ccccc3OC)oc2C)S(=O)(=O)c2ccc(C)cc2)cc1`, the AC50 is 19.3 µM.

Consider `COc1ccccc1-c1nc(CN2CCc3c(sc4c3CCCC4)C2c2ccccc2)c(C)o1` (configuration not stated), for which the AC50 is 7.72 µM.

Turning to `C/C=C/c1ccc([C@@H]2[C@@H](CO)N3CCCCN(CCC(F)(F)F)C[C@@H]23)cc1`, the AC50 was 17.4 µM.

Consider `COc1ccc(CNC2=NCCNC23CCN(S(=O)(=O)c2ccc(C)c(C)c2)CC3)cc1`, for which the AC50 is > 39 µM (inactive).

Regarding `CCCNC(=O)N1[C@H](CO)[C@@H](c2ccc(-c3ccccc3F)cc2)[C@@H]1C#N`, the AC50 was 19.9 µM.

Turning to `CC(C)N1c2ccc(F)cc2[C@@H]2CN(C(=O)c3ccco3)CC[C@H]21`, the AC50 was 12.8 µM.

As to `COCC(=O)N1CCC2(CC1)CN(Cc1nccs1)CCO2`, the AC50 was 17.9 µM.

With `CC(C)n1cnc2c(NCC3CC3)nc(C3CCN(C(=O)c4cccc(F)c4F)CC3)cc21`, the AC50 is 19.8 µM.

Regarding `CCCCCCC(C)(C)c1ccc(C2CC(O)CCC2CCCO)c(O)c1` (configuration not stated), the AC50 is 8.47 µM.

On to `Cc1ccc(S(=O)(=O)N2CSC[C@@H]2C(=O)NCCc2csc(-c3ccccc3)n2)cc1`, for which the AC50 is 12.9 µM.

In the case of `Cc1ccc(N(Cc2nc(-c3ccccc3)oc2C)S(=O)(=O)c2cccs2)cc1`, the AC50 was 3.53 µM.

In the case of `CCC(C(=O)N1CCC2(CC1)Nc1ccc(Cl)cc1-n1cccc12)c1ccccc1` (configuration not stated), the AC50 is > 39 µM (inactive).

`Cc1ccc(S(=O)(=O)N2CCC3(CC2)NCCN=C3NC2CCCCCC2)c(C)c1`: the AC50 was 14.2 µM.

Turning to `Cc1ccc(-c2nc(CN3CCN(C(=O)Nc4ccc(F)cc4)CC3)c(C)o2)cc1`, the AC50 was 33.3 µM.

For the compound `N#C[C@H]1[C@@H](c2ccc(-c3cccnc3)cc2)[C@@H](CO)N1C(=O)Nc1ccc(F)cc1`, the AC50 is 12.7 µM.

`CC(C)c1cccc(NC(=O)C[C@H]2CC[C@H]3[C@@H](COc4ccc(NS(=O)(=O)c5ccccc5Cl)cc4C(=O)N3C)O2)c1`: the AC50 was 22.6 µM.

With `O=S(=O)(c1cccs1)N1CCC2(CC1)NCCN=C2NCc1ccc(Cl)cc1`, the AC50 was > 39 µM (inactive).

In the case of `CN(C)C(=O)c1ccc(-c2ccc3c(c2)[C@@H]2[C@@H](CCN2C(=O)C2CCCC2)[C@@H](CO)N3C)cc1`, the AC50 was 21.1 µM.

With `CN(C)CCNC(=O)c1c2c(NCc3cccnc3)ncnc2n2ccccc12`, the AC50 is 32.4 µM.

`Cc1cccc(C(=O)Nc2c(C(=O)NCc3cccnc3)[nH]c3ccccc23)c1`: the AC50 is > 39 µM (inactive).

With `O=C(Nc1ccc(F)cc1)N1CC(=O)N2[C@H](C1)[C@@H](c1ccc(-c3cccc(F)c3)cc1)[C@@H]2CO`, the half-maximal activity concentration (AC50) was 8.5 µM and 5.04 µM.

With `Cc1nc(OCC(=O)Nc2c(C)cccc2C)c2ccccc2n1`, the AC50 was 28.8 µM.

Take `COc1ccc(-c2nc(N(CCCN3CCOCC3)Cc3ccco3)c3ccccc3n2)cc1`: the AC50 was 9.51 µM.

With `O=C(C[C@H]1CC[C@H]2[C@@H](COC[C@H](O)CN2Cc2ccc(Oc3ccccc3)cc2)O1)N1CCN(c2ccccc2)CC1`, the AC50 is 12.1 µM and 21.2 µM.

For the compound `O=C(Nc1ccc(F)cc1)N1CC(=O)N2[C@H](C1)[C@H](c1ccc(-c3cccc(F)c3)cc1)[C@@H]2CO`, the AC50 was 17.9 µM.

For the compound `CCN(C[C@@H]1N[C@@H](CO)[C@H]1c1ccc(-c2ccc(F)cc2)cc1)C(=O)CN(C)C`, the AC50 is 21.3 µM.

Take `CCOc1ccc(-c2nc(CN(c3ccccc3OC)S(=O)(=O)c3cccs3)c(C)o2)cc1`: the AC50 is 8.23 µM.

Take `Cc1c(Cl)cccc1NC(=O)CN1CCC2(CC1)N=C(c1cccc(F)c1)C(=O)N2`: the AC50 was > 39 µM (inactive).

As for `Cc1ccccc1Cn1c(CN2CCC(C(=O)N3CCCC3)CC2)cc2ccccc21`, the AC50 is > 39 µM (inactive).

For the compound `Cc1ccc(-c2cc(C(F)(F)F)nn2-c2ccc(S(N)(=O)=O)cc2)cc1`, the AC50 was 22.2 µM.

Regarding `COc1ccc(-c2nc(N3CCC(N4CCCCC4)CC3)c3ccccc3n2)cc1`, the AC50 was 10.6 µM.

Turning to `Cc1cccc(S(=O)(=O)N2CCc3nc(-c4cnn(C)c4)nc(NC4CC4)c3C2)c1`, the AC50 was 19 µM.

Turning to `COc1ccccc1C(=O)Nc1ccc(-c2nc(-c3ccc(C)cc3C)co2)cc1`, the AC50 was 9.34 µM and 18.2 µM.

Take `CCc1nc(OCC(=O)Nc2ccc(F)c(Cl)c2)c2ccccc2n1`: the AC50 is > 39 µM (inactive).

Turning to `Cc1ccc(CNC2=NCCNC23CCN(S(=O)(=O)c2ccc(Cl)s2)CC3)cc1`, the AC50 is 5.08 µM.

`COc1cccc(NC(=O)COc2nc(C)nc3ccccc23)c1`: the AC50 was 36.7 µM.

Turning to `O=S(=O)(c1ccc2c(c1)CCCC2)N1CCC2(CC1)NCCN=C2NCc1ccccc1F`, the AC50 is 16.4 µM.

For the compound `Cc1ccc(S(=O)(=O)Nc2ccc3c(c2)C(=O)N([C@H](C)CO)C[C@H](C)[C@H](CN(C)Cc2ccc(C(F)(F)F)cc2)O3)cc1`, the AC50 is 13.1 µM.

For `COc1ccc(-c2nc(N3CCOCC3)c3ccccc3n2)cc1`, the AC50 is 36.1 µM.

As to `CCc1ccc(S(=O)(=O)N2CCC3(CC2)NCCN=C3NC2CCCCCC2)cc1`, the AC50 is 5.05 µM.

Turning to `COc1cccc(-c2nc(C)c(-c3ccc(SCc4ccccc4)nn3)s2)c1`, the AC50 is 12.7 µM.

`COc1cccc(-c2nc(C)c(-c3ccc(SCc4ccc(F)cc4)nn3)s2)c1`: the AC50 is 6.5 µM.

Regarding `COc1cccc(NC(=O)N2CCc3nc(-c4ccc(C)cc4)sc3C2)c1`, the half-maximal activity concentration (AC50) is 26.8 µM.

In the case of `Cc1nc(-c2cc(S(=O)(=O)NCCCN3CCCC(C)C3)c(C)s2)sc1C` (configuration not stated), the AC50 was 33.7 µM.

`COc1cccc(NC(=O)N2CC(=O)N3[C@H](CO)[C@@H](c4ccc(C#CCC5CCCC5)cc4)[C@H]3C2)c1`: the AC50 is > 39 µM (inactive).

Broadly, the AC50 is the midpoint of the concentration-response curve, whichever way the signal moves.
